Results reported in patent publication EP1881000A1, “Conjugates of 2-fluoro-2-deoxy-glucose and their uses as anti cancer agents” (INSTITUT NATIONAL DE LA SANTE ET DE LA RECHERCHE MEDICALE …, priority 2006, dated 2008).

Tests used:
Assay in all cases: In vitro cytotoxicity assay (resazurin reduction test)
Type in all cases: cell-based
[1] = system: Breast cancer adenocarcinoma MCF 7; conditions: Homo sapiens; MCF7; 48-h continuous drug exposure
Text: (§1) Normal human fibroblasts were purchased from Promocell (Heidelberg, Germany). This frozen culture was obtained from foreskin waste and the cells used in this work were from the seventh to twelfth passage of the culture. M4Beu, a human melanoma cell line, was established in the laboratory of Dr. J. F. Doré (INSERM, Unit 218, Lyon, France) from metastatic biopsy specimens and maintained in cell culture for almost 20 years in our lab. Breast cancer adenocarcinoma MCF 7, prostatic adenocarcinoma PC 3, colon adenocarcinoma DLD-1, lung non-small cell carcinoma A 549, ovary adenocarcinoma PA1 human cell lines and L 929 murine cell line were purchased from the European Collection of Cell Cultures (ECACC; Salisbury, United Kingdom). Murine Melanoma B16 was purchased from American Type of Culture Collection (ATCC, Manassas, USA) and murine colon carcinoma cell line CT-26 was obtained from Dr I. J. Fidler (University of Texas M.D. Anderson Cancer Center, Houston).
(§2) Stock cell cultures were maintained as monolayers in 75cm^2 culture flasks in Glutamax Eagle's minimum essential medium with Earle's salts (MEM; Gibco BRL, Paisley, UK) supplemented with 10% fetal calf serum (Sigma, St Quentin Fallavier, France), 1 mM sodium pyruvate (Gibco), 1X vitamins solution (Gibco), 1X non essential amino acids solution (Gibco) and 4 µg/ml of gentamicine (Gibco). Cells were grown at 37°C in a humidified atmosphere containing 5% CO2.
(§3) Cells were plated at a density of 5 x 10^3 cells per well in 96-well microplates (Nunclon™, Nunc, Roskilde, Denmark) in 150 µl of culture medium and were allowed to adhere for 16 h before treatment with the compound tested.
(§4) Stock solution of each compound was prepared in dimethylsulfoxide (DMSO) and kept at -20°C. until use. The percentage of DMSO was kept at 0.5% (v/v) whichever the concentration tested. […] Fifty microliters of a 4X solution in MEM was then added and a 48-h continuous drug exposure protocol was used. Then, the cytotoxic effect of compounds on tumour cells was tested by using Resazurin reduction test.
(§5) Resazurin was identified as the Alamar blue dye (O'Brien, J. et al.; European Journal of Biochemistry, 267, 5421-6, (2000)). The resazurin reduction test (RRT) was carried out according to the protocol described here. Briefly, plates were rinsed by 200 µl PBS (37° C, Gibco) using a multichannel dispenser (Labsystems, Helsinki, Finland) and emptied by overturning on absorbent toweling. Then, 150 µl of a 25 µg/ml solution of resazurin in MEM without SVF nor Phenol red was added in each well. The plates were incubated 1 h at 37° C. in an humidified atmosphere with 5% of CO2 for fluorescence development by living cells. Fluorescence was then measured on the automated 96-well plate reader Fluoroskan Ascent FL™ (Labsystems) using an excitation wavelength of 530 nm and an emission one of 590 nm.
(§6) Cytotoxic activity has been tested against the six human tumour cell lines breast adenocarcinoma MCF-7, colon adenocarcinoma DLD-1, ovary adenocarcinoma PA1, prostatic adenocarcinoma PC3, lung carcinoma A549, melanoma M4Beu and a primary culture of human fibroblasts.

[2] = system: M4Beu, a human melanoma cell line; conditions: 48-h continuous drug exposure
Text: as §1, §2, §3, §4, §5, §6

Normal human fibroblasts = conditions: Fibroblast, 48-h continuous drug exposure
Text: as §1, §2, §3, §4, §5, §6

[3] = system: colon adenocarcinoma DLD-1; conditions: Homo sapiens, DLD1, 48-h continuous drug exposure
Text: as §1, §2, §3, §4, §5, §6

[4] = system: lung non-small cell carcinoma A 549; conditions: Homo sapiens; A549; 48-h continuous drug exposure
Text: as §1, §2, §3, §4, §5, §6

ovary adenocarcinoma PA1 = conditions: Homo sapiens, 48-h continuous drug exposure
Text: as §1, §2, §3, §4, §5, §6

[5] = system: prostatic adenocarcinoma PC 3; conditions: Homo sapiens; PC3; 48-h continuous drug exposure
Text: as §1, §2, §3, §4, §5, §6

Murine Melanoma B16 = conditions: Mus musculus, 48-h continuous drug exposure
Text: as §1, §2, §3, §4, §5

[6] = system: murine colon carcinoma cell line CT-26; conditions: Mus musculus; CT26; 48-h continuous drug exposure
Text: as §1, §2, §3, §4, §5

| Structure (SMILES) | IC50 [1] [µM] | IC50 [2] [µM] | IC50 (Normal human fibroblasts) [µM] | IC50 [3] [µM] | IC50 [4] [µM] | IC50 (ovary adenocarcinoma PA1) [µM] | IC50 [5] [µM] | IC50 (Murine Melanoma B16) [µM] | IC50 [6] [µM] |
| --- | --- | --- | --- | --- | --- | --- | --- | --- | --- |
| CC(=O)OC[C@H]1O[C@@H](NC(=O)NCCCc2ccc(N(CCCl)CCCl)cc2)[C@H](F)[C@@H](OC(C)=O)[C@@H]1OC(C)=O [Compound 17a, N-(3,4,6-tri-O-acetyl-2-deoxy-2-fluoro-β-D-glucopyranosyl)-N'-{3-(4-[bis(2-chloroethyl)amino]phenyl)propyl}urea] | 26.4 ± 0.6 | 27 ± 11 | 13 ± 2 | 7 ± 3 | 8 ± 2 | 0.6 ± 0.2 | 4 ± 1 |  |  |
| CC(=O)OC[C@H]1O[C@@H](NC(=O)c2ccc(NC(=O)CCCc3ccc(N(CCCl)CCCl)cc3)cc2)[C@H](F)[C@@H](OC(C)=O)[C@@H]1OC(C)=O [Compound 20a, N-(3,4,6-tri-O-acetyl-2-deoxy-2-fluoro-β-D-glucopyranosyl)-4-(4-{4-[bis(2-chloroethyl)amino]phenyl}butanamido)benzamide] | 5 ± 2 | 7 ± 3 | 4 ± 2 | 3 ± 2 | 2.7 ± 0.6 | 0.3 ± 0.1 | 1.4 ± 0.3 | 4.6 ± 0.3 | 1.7 ± 0.3 |
| CC(=O)OC[C@H]1O[C@@H](NC(=O)CCCNC(=O)CCCc2ccc(N(CCCl)CCCl)cc2)[C@H](F)[C@@H](OC(C)=O)[C@@H]1OC(C)=O [Compound 22a, N-[4-(3,4,6-tri-O-acetyl-2-deoxy-2-fluoro-β-D-glucopyranosylamino)-4-oxobutyl]-4-{4-[bis(2-chloroethyl)amino]phenyl}butanamide] | 12 ± 1 | 9 ± 3 | 4.1 ± 0.1 | 9 ± 2 | 13 ± 5 | 0.27 ± 0.04 | 3 ± 1 |  |  |
| CC(=O)OC[C@H]1O[C@@H](NC(=O)CCNC(=O)CCCc2ccc(N(CCCl)CCCl)cc2)[C@H](F)[C@@H](OC(C)=O)[C@@H]1OC(C)=O [Compound 31a, N-[3-(3,4,6-tri-O-acetyl-2-deoxy-2-fluoro-β-D-glucopyranosylamino)-3-oxopropyl]-4-{4-[bis(2-chloroethyl)amino]phenyl}butanamide] | 13 ± 5 | 15 ± 3 | 7 ± 5 | 11 ± 4 | 9.2 ± 0.5 | 0.24 ± 0.08 | 3.7 ± 0.3 |  |  |
| CC(=O)OC[C@H]1O[C@@H](Oc2ccc(NC(=O)CCCc3ccc(N(CCCl)CCCl)cc3)cc2)[C@H](F)[C@@H](OC(C)=O)[C@@H]1OC(C)=O [Compound 37a, N-[4-(3,4,6-tri-O-acetyl-2-deoxy-2-fluoro-β-D-glucopyranosyloxy)phenyl]-4-{4-[bis(2-chloroethyl)amino]phenyl}butanamide] | 26 ± 11 | > 50 | > 50 | 10 ± 5 | 1.9 ± 0.01 | 0.76 ± 0.06 | 11 ± 4 |  |  |
